Consider 4 compounds from PubChem BioAssay AID1259407 (Chemical Carcinogenesis Research Information System (CCRIS), 2018).

The data set has as its system CCRIS mutagenicity, Ames/micronucleus/aberration tests. Put plainly: CCRIS mutagenicity studies.
The mark [1] stands for this setting: Test System: AMES SALMONELLA TYPHIMURIUM, Strain/Indicator: TA98, Metabolic Activation: NONE, Method: STANDARD PLATE.
[2] abbreviates: Test System: AMES SALMONELLA TYPHIMURIUM, Strain/Indicator: TA100, Metabolic Activation: NONE, Method: STANDARD PLATE.

Calls of active or inactive are those of the source. How the calls were made is not given here.

For the compound `C1COCCOCCOCCOCCO1`, the mutagenic call was “inactive; negative” under setting [1]; “inactive; negative” (Test System: AMES SALMONELLA TYPHIMURIUM, Strain/Indicator: TA98, Metabolic Activation: RAT, LIVER, S-9, AROCLOR 1254, Method: STANDARD PLATE); “inactive; negative” under setting [2]; “inactive; negative” (Test System: AMES SALMONELLA TYPHIMURIUM, Strain/Indicator: TA100, Metabolic Activation: RAT, LIVER, S-9, AROCLOR 1254, Method: STANDARD PLATE); “inactive; negative” (Test System: AMES SALMONELLA TYPHIMURIUM, Strain/Indicator: TA1530, Metabolic Activation: NONE, Method: STANDARD PLATE); “inactive; negative” (Test System: AMES SALMONELLA TYPHIMURIUM, Strain/Indicator: TA1530, Metabolic Activation: RAT, LIVER, S-9, AROCLOR 1254, Method: STANDARD PLATE). Also, the mutagenic call is “inactive; negative” (Test System: AMES SALMONELLA TYPHIMURIUM, Strain/Indicator: TA1537, Metabolic Activation: NONE, Method: STANDARD PLATE) and “inactive; negative” (Test System: AMES SALMONELLA TYPHIMURIUM, Strain/Indicator: TA1537, Metabolic Activation: RAT, LIVER, S-9, AROCLOR 1254, Method: STANDARD PLATE).

As to `O=C1CCO1`, the mutagenic call reads like this: under setting [2], “active; positive”; (Test System: AMES SALMONELLA TYPHIMURIUM, Strain/Indicator: TA100, Metabolic Activation: RAT, LIVER, S-9, KC500 OR PHENOBARBITAL, Method: LIQUID SUSPENSION) “active; positive”; (Test System: AMES SALMONELLA TYPHIMURIUM, Strain/Indicator: TA1535, Metabolic Activation: NONE, Method: STANDARD PLATE) “active; positive”; (Test System: CHINESE HAMSTER V-79, Strain/Indicator: V-79/6-THIOGUANINE, Metabolic Activation: NONE, Method: FLASK ASSAY) “active; positive”; (Test System: MOUSE LYMPHOMA, Strain/Indicator: L5178Y (TK+/TK-), Metabolic Activation: NONE, Method: SUSPENSION/PLATE) “active; positive”; (Test System: MOUSE LYMPHOMA, Strain/Indicator: L5178Y (TK+/TK-), Metabolic Activation: RAT, LIVER, S-9, AROCLOR 1254, Method: SUSPENSION/PLATE) “active; positive”. For the same compound, the mutagenic call was “active; positive” (Test System: UDS HUMAN FIBROBLASTS, Strain/Indicator: THY INCORP (NON-S-PHASE), Metabolic Activation: NONE, Method: LIQUID SCINTILLATION COUNTING); “active; positive” (Test System: UDS HUMAN LYMPHOCYTES, Strain/Indicator: THY INCORP (NON-S-PHASE), Metabolic Activation: NONE, Method: LIQUID SCINTILLATION COUNTING); “active; positive” (Test System: UDS RODENT PRIMARY CELLS, Strain/Indicator: THY INCORP (NON-S-PHASE), Metabolic Activation: NONE, Method: AUTORADIOGRAPHY).

As for `COc1c2ccoc2nc2c(O)cccc12`, the mutagenic call is, setting by setting: under setting [1], “inactive; negative”; (Test System: AMES SALMONELLA TYPHIMURIUM, Strain/Indicator: TA98, Metabolic Activation: RAT LIVER S-9, PHENOBARTITAL, Method: STANDARD PLATE) “active; positive”.

Regarding `c1ccc2c(c1)C1CCCCC1[C@@H]1O[C@@H]21` (stereo partly specified), the mutagenic call reads like this: under setting [1], “inactive; negative”; under setting [2], “inactive; negative”.
